Experimental data published in patent publication US20080039533A1, “Bioactive Compositions Comprising Triazines” (3M INNOVATIVE PROPERTIES COMPANY, priority 2003, published 2008).
≈ marks a conversion by molar mass, not a printed value.

Assay: physchem
Details: buffer solution without triazine compound

SMILES: CC(C)Cn1cnc2c(N)nc3ccccc3c21 [Imiquimod]
- solubility (pH 6.05, aqueous buffer): 20 µg/mL (≈ 83.2 µM)
- solubility (pH 7.82, aqueous buffer): 1.2 µg/mL (≈ 4.99 µM)
